Here are results for ten molecules from PubChem BioAssay (NCI).

Some test systems named below: SN12C renal; SK-OV-3 ovarian; NCI-H460 lung; HCT-15 colon; HS 578T breast; 786-0 renal; UACC-257 melanoma; KM12 colon; EKVX NSCLC; RXF 393 renal.
Assay in all cases: NCI anticancer screen, dose series, 48 h

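Test compounds were applied to cells in 96-well plates for 48 hours at 5 doses. Abbreviation: GI50, concentration required for 50% inhibition of growth. The concentration for full growth arrest is given as TGI.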

As for `OCCNc1ncnc2c1ncn2Cc1cccc(COc2cccc(OCc3cccc(Cn4cnc5c(NCCO)ncnc54)c3)c2)c1`, the GI50 in the test with SN12C renal is 17 µM; with SK-OV-3 ovarian it was > 100 µM; in the test on NCI-H460 lung it was 15.1 µM; in the test with HCT-15 colon it was 30.9 µM; with HS 578T breast it was 11.8 µM; in the test on 786-0 renal it was 15.5 µM. Besides, the GI50 with UACC-257 melanoma was 18.4 µM; in the test with KM12 colon it was 13.3 µM; with EKVX NSCLC, 14.3 µM. The TGI with SN12C renal was 34.5 µM; with SK-OV-3 ovarian, > 100 µM; with NCI-H460 lung, 29 µM; in the test with HCT-15 colon, > 100 µM; with HS 578T breast, 28.7 µM; in the test with 786-0 renal it was 30.3 µM. In addition, the values for the TGI with UACC-257 melanoma, in the test on KM12 colon and in the test with EKVX NSCLC were 36.1 µM, 38.8 µM and 29 µM, respectively.

`CCOc1cc(/C=N\Nc2nnc(C)n2N)c(C)cc1N(CCCl)CCCl`: the GI50 in the test on SN12C renal was 1.07 µM; in the test with SK-OV-3 ovarian it was 2.28 µM; in the test on NCI-H460 lung, 0.843 µM; in the test with HCT-15 colon, 1.28 µM; in the test with HS 578T breast, 1.52 µM; with 786-0 renal, 1.51 µM. The GI50 in the test on UACC-257 melanoma is 0.396 µM; in the test with RXF 393 renal it was 1.2 µM; with KM12 colon, 0.897 µM. In addition, the TGI in the test on SN12C renal was 27.3 µM; with SK-OV-3 ovarian, 8.24 µM; in the test with NCI-H460 lung, 31.5 µM; in the test on HCT-15 colon it was > 44.5 µM; in the test on HS 578T breast it was 13.1 µM; in the test with 786-0 renal, 23.2 µM. The TGI in the test with UACC-257 melanoma stood at 3.6 µM; in the test on RXF 393 renal it was 17.7 µM; with KM12 colon it was 19.9 µM.

`COc1ccc(-c2oc3c(OC)c(OC)c(OC)c(OC)c3c(=O)c2OC)cc1OC`: the TGI was > 100 µM with SN12C renal; > 100 µM in the test with SK-OV-3 ovarian; 57 µM with NCI-H460 lung; > 100 µM with HCT-15 colon; 56.3 µM with HS 578T breast; > 100 µM with 786-0 renal. The TGI in the test on UACC-257 melanoma, in the test on KM12 colon and with EKVX NSCLC was > 100 µM in each case.

Regarding `CC1C(=O)OCC2=CCN3CCC(OC(=O)C(C)C1(C)O)C23` (stereo not drawn), the TGI in the test on SN12C renal, in the test on SK-OV-3 ovarian, in the test with NCI-H460 lung, with HCT-15 colon, with HS 578T breast and with 786-0 renal was > 100 µM each time. The TGI in the test on UACC-257 melanoma, in the test with KM12 colon and in the test on EKVX NSCLC was > 100 µM each time.

With `O=c1cccc(C2CC(CO)C3CCCCN3C2)[nH]1` (stereo not drawn), the TGI in the test on SN12C renal, with SK-OV-3 ovarian, with NCI-H460 lung, in the test on HCT-15 colon, in the test on HS 578T breast and in the test with 786-0 renal was > 100 µM in each case. Besides, the TGI with UACC-257 melanoma, in the test with KM12 colon and in the test with EKVX NSCLC was > 100 µM each time.

As to `CCCOc1ccc2nc(NC(=O)OC)[nH]c2c1`, the GI50 is 0.597 µM with SN12C renal; 0.262 µM in the test on SK-OV-3 ovarian; 0.324 µM with NCI-H460 lung; 0.13 µM in the test with HCT-15 colon; 0.342 µM in the test with HS 578T breast; 0.47 µM with 786-0 renal. The GI50 in the test on UACC-257 melanoma was > 100 µM; with KM12 colon, 0.0974 µM; in the test on EKVX NSCLC it was 0.535 µM. In addition, the TGI in the test on SN12C renal, with NCI-H460 lung, in the test with HCT-15 colon, in the test on HS 578T breast, in the test with 786-0 renal and with UACC-257 melanoma was > 100 µM each time. For the same molecule, the TGI in the test on KM12 colon and in the test on EKVX NSCLC was > 100 µM in each case.

In the case of `CN(C)CCCNC(=O)c1ccc2c(c1)oc1cc3ccccc3c(=O)n12`, the GI50 in the test with SN12C renal is 15.4 µM; in the test with SK-OV-3 ovarian it was 38.7 µM; with NCI-H460 lung, 9.96 µM; in the test on HCT-15 colon it was 12.3 µM; in the test on 786-0 renal, > 50 µM; with UACC-257 melanoma it was 12.6 µM. The GI50 in the test on RXF 393 renal is 6.85 µM; in the test on KM12 colon, 19.1 µM; in the test with EKVX NSCLC, 17.6 µM. Also, the TGI is 43.4 µM in the test with SN12C renal; > 50 µM in the test on SK-OV-3 ovarian; 39.9 µM in the test on NCI-H460 lung; > 50 µM with HCT-15 colon; > 50 µM in the test with 786-0 renal; 36.8 µM in the test with UACC-257 melanoma. In addition, the TGI in the test on RXF 393 renal was 18.2 µM; in the test with KM12 colon, > 50 µM; in the test on EKVX NSCLC, 45.7 µM.

As for `COC(=O)C(CC(=O)Nc1ccc(C)cc1)C(=O)C(=O)Nc1ccccc1C(C)C` (stereo not drawn), the TGI in the test on SN12C renal, in the test with SK-OV-3 ovarian, in the test on NCI-H460 lung, in the test with HCT-15 colon, in the test on 786-0 renal and in the test on UACC-257 melanoma was > 100 µM in each case. The TGI with RXF 393 renal, in the test with KM12 colon and in the test on EKVX NSCLC was > 100 µM each time.

Regarding `Cc1cc2c(cc1Cl)SC1=NN(C)C(N(C)C)N1S2(=O)=O` (stereo not drawn), the GI50 in the test with SN12C renal, in the test with SK-OV-3 ovarian, with NCI-H460 lung, with HCT-15 colon, with HS 578T breast and with 786-0 renal was > 100 µM in each case. For the same molecule, the GI50 with UACC-257 melanoma, with KM12 colon and in the test with EKVX NSCLC was > 100 µM in each case. For the same molecule, the TGI in the test on SN12C renal, with SK-OV-3 ovarian, in the test on NCI-H460 lung, in the test with HCT-15 colon, in the test with HS 578T breast and in the test on 786-0 renal was > 100 µM each time. In addition, the TGI in the test with UACC-257 melanoma, in the test on KM12 colon and with EKVX NSCLC was > 100 µM in each case.

Turning to `CCOc1cccc(/C=N/NC(=O)C(=O)Nc2cccc(C(F)(F)F)c2)c1O`, the GI50 with SN12C renal was 2.66 µM; in the test on SK-OV-3 ovarian, 5.28 µM; in the test with NCI-H460 lung, 0.808 µM; in the test with HCT-15 colon it was 0.459 µM; in the test on HS 578T breast it was 12 µM; in the test on 786-0 renal it was 3.27 µM. Besides, the figures for the GI50 in the test on UACC-257 melanoma, in the test with RXF 393 renal and with KM12 colon were 2.57 µM, 4.07 µM and 3 µM, respectively. For the same molecule, the TGI with SN12C renal was > 100 µM; with SK-OV-3 ovarian, > 100 µM; with NCI-H460 lung, 60.3 µM; in the test with HCT-15 colon it was > 100 µM; in the test on HS 578T breast it was > 100 µM; in the test with 786-0 renal, 41.3 µM. The TGI with UACC-257 melanoma is 25 µM; with RXF 393 renal, 55.1 µM; with KM12 colon, > 100 µM.
